Experimental data as given in the supplement of paper PMC11061612.

Legend:
Experiment in all cases: combination Emax (second highest fraction inhibited in the dose matrix, 72 h); higher = more inhibition; extreme values may be limits of the assay
[1] = tested on: LC-1-sq (Squamous Cell Lung Carcinoma)
Procedure, shortened: (§1)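 After 24 hours at 37°C and 5% CO2 in 1536-well plates, cells in DMEM/F12 or RPMI plus 10% FBS received two-drug dose matrices for 72 hours. Viability came from CellTiter-Glo 2.0 luminescence and was scaled as inhibition, anchored at 0 by vehicle wells and at 1 by blank wells. Combination Emax is taken as the second-highest inhibition in the matrix, and Bliss excess as the observed combination effect less EA + EB − EA·EB, with EA and EB the single-agent effects.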

[2] = tested on: SKN (Other Solid Carcinomas)
Procedure, shortened: as §1

[3] = tested on: MOG-G-UVW (Low Grade Glioma)
Procedure, shortened: as §1

[4] = tested on: SW872 (Other Solid Carcinomas)
Procedure, shortened: as §1

SMILES: Cn1cnc2c(F)c(Nc3ccc(Br)cc3Cl)c(C(=O)NOCCO)cc21 [Selumetinib] + C[C@@H]1COCCN1C2=NC(=NC(=C2)C3(CC3)[S@](=N)(=O)C)C4=C5C=CNC5=NC=C4 [AZD6738] (first compound max 10 µM, 7x7, partner max 10 µM)
- combination Emax [1]: 0.684
- combination Emax [2]: 0.423
- combination Emax [3]: 0.691
- combination Emax [4]: 0.276

SMILES: O=C(c1cc(Cc2n[nH]c(=O)c3ccccc23)ccc1F)N1CCN(C(=O)C2CC2)CC1 [Olaparib] + COc1nnc2ccc(N3CCC(c4ccc(OCCN5CCN(C)C(=O)[C@H]5C)cc4)CC3)nn12 [AZD5153] (first compound max 10 µM, 7x7, partner max 1 µM)
- combination Emax [2]: 0.553
- combination Emax [3]: 0.641
- combination Emax [4]: 0.568

SMILES: CN(CCO)CC[C@H](CSc1ccccc1)Nc1ccc(S(=O)(=O)NC(=O)c2ccc(N3CCC([C@@H](O)c4ccccc4-c4ccc(Cl)cc4)CC3)cc2)cc1S(=O)(=O)C(F)(F)F [AZD4320] + C=CCn1c(=O)c2cnc(Nc3ccc(N4CCN(C)CC4)cc3)nc2n1-c1cccc(C(C)(C)O)n1 [AZD1775] (first compound max 1 µM, partner max 1 µM)
- combination Emax [1]: 0.869
- combination Emax [2]: 0.586
- combination Emax [4]: 0.3

SMILES: Cn1cnc2c(F)c(Nc3ccc(Br)cc3Cl)c(C(=O)NOCCO)cc21 [Selumetinib] + CC(C)n1c(=O)n(C)c2cnc3cc(F)c(-c4ccc(OCCCN5CCCCC5)nc4)cc3c21 [AZD1390] (first compound max 10 µM, 7x7, partner max 0.3 µM)
- combination Emax [1]: 0.184
- combination Emax [2]: 0.113
- combination Emax [3]: 0.346
- combination Emax [4]: 0.203

SMILES: C=CCn1c(=O)c2cnc(Nc3ccc(N4CCN(C)CC4)cc3)nc2n1-c1cccc(C(C)(C)O)n1 [AZD1775] + CCc1c2c(nc3ccc(O)cc13)-c1cc3c(c(=O)n1C2)COC(=O)[C@]3(O)CC [SN-38] (first compound max 1 µM, partner max 0.3 µM)
- combination Emax [2]: 0.756
- combination Emax [3]: 0.945
- combination Emax [4]: 0.933

SMILES: Cc1c2c(nn1C)CSCc1cc(n(C)n1)CSc1cc(c3ccccc3c1)OCCCc1c(C(=O)O)n(C)c3c-2c(Cl)ccc13 [AZD5991] + CC(=O)O[C@H]1C(=O)[C@@]2(C)[C@H]([C@H](OC(=O)c3ccccc3)[C@]3(O)C[C@H](OC(=O)[C@H](O)[C@@H](NC(=O)c4ccccc4)c4ccccc4)C(C)=C1C3(C)C)[C@]1(OC(C)=O)CO[C@@H]1C[C@@H]2O [Paclitaxel] (first compound max 1 µM, 7x7, partner max 3 µM)
- combination Emax [2]: 0.694
- combination Emax [3]: 0.986
- combination Emax [4]: 0.869

SMILES: O=C(c1cc(Cc2n[nH]c(=O)c3ccccc23)ccc1F)N1CCN(C(=O)C2CC2)CC1 [Olaparib] + Cc1c2c(nn1C)CSCc1cc(n(C)n1)CSc1cc(c3ccccc3c1)OCCCc1c(C(=O)O)n(C)c3c-2c(Cl)ccc13 [AZD5991] (first compound max 10 µM, 7x7, partner max 1 µM)
- combination Emax [2]: 0.126
- combination Emax [3]: 0.408
- combination Emax [4]: 0.157

SMILES: O=C(c1cc(Cc2n[nH]c(=O)c3ccccc23)ccc1F)N1CCN(C(=O)C2CC2)CC1 [Olaparib] + CN(CC[C@H](CSC1=CC=CC=C1)NC2=C(C=C(C=C2)S(=O)(=O)NC(=O)C3=CC=C(C=C3)N4CCC(CC4)[C@H](C5=CC=CC=C5C6=CC=C(C=C6)Cl)O)S(=O)(=O)C(F)(F)F)CCO [AZD4320] (first compound max 10 µM, 7x7, partner max 1 µM)
- combination Emax [2]: 0.174
- combination Emax [3]: 0.344
- combination Emax [4]: 0.133

SMILES: O=C(c1cc(Cc2n[nH]c(=O)c3ccccc23)ccc1F)N1CCN(C(=O)C2CC2)CC1 [Olaparib] + CC1(C)CCC(CN2CCN(c3ccc(C(=O)NS(=O)(=O)c4ccc(NCC5CCOCC5)c([N+](=O)[O-])c4)c(Oc4cnc5[nH]ccc5c4)c3)CC2)=C(c2ccc(Cl)cc2)C1 [Venetoclax] (first compound max 10 µM, 7x7, partner max 1 µM)
- combination Emax [2]: 0.104
- combination Emax [3]: 0.257
- combination Emax [4]: 0.141

SMILES: C[C@@H](Oc1cc(-c2cnn(C3CCNCC3)c2)cnc1N)c1c(Cl)ccc(F)c1Cl [Crizotinib] + Cn1cnc2c(F)c(Nc3ccc(Br)cc3Cl)c(C(=O)NOCCO)cc21 [Selumetinib] (first compound max 10 µM, 7x7, partner max 10 µM)
- combination Emax [2]: 0.368
- combination Emax [3]: 0.77
- combination Emax [4]: 0.338

SMILES: CS(=O)(=O)CCNCc1ccc(-c2ccc3ncnc(Nc4ccc(OCc5cccc(F)c5)c(Cl)c4)c3c2)o1 [Lapatinib] + NC1(c2ccc(-c3nc4ccn5c(=O)[nH]nc5c4cc3-c3ccccc3)cc2)CCC1 [MK-2206] (first compound max 10 µM, 7x7, partner max 10 µM)
- combination Emax [2]: 0.658
- combination Emax [3]: 0.648
- combination Emax [4]: 0.247

SMILES: Cc1c2c(nn1C)CSCc1cc(n(C)n1)CSc1cc(c3ccccc3c1)OCCCc1c(C(=O)O)n(C)c3c-2c(Cl)ccc13 [AZD5991] + CS(=O)(=O)CCNCc1ccc(-c2ccc3ncnc(Nc4ccc(OCc5cccc(F)c5)c(Cl)c4)c3c2)o1 [Lapatinib] (first compound max 1 µM, 7x7, partner max 10 µM)
- combination Emax [2]: 0.223
- combination Emax [3]: 0.311
- combination Emax [4]: 0.32

SMILES: C=CCn1c(=O)c2cnc(Nc3ccc(N4CCN(C)CC4)cc3)nc2n1-c1cccc(C(C)(C)O)n1 [AZD1775] + C1CN(CCC1(C(=O)N[C@@H](CCO)C2=CC=C(C=C2)Cl)N)C3=NC=NC4=C3C=CN4 [Capivasertib] (first compound max 3 µM, partner max 3 µM)
- combination Emax [1]: 0.761
- combination Emax [2]: 0.576
- combination Emax [3]: 0.891

SMILES: C[C@@H](Nc1cc(F)cc(F)c1)c1cc(C(=O)N(C)C)cc2c(=O)cc(N3CCOCC3)oc12 [AZD8186] + C1CN(CCC1(C(=O)N[C@@H](CCO)C2=CC=C(C=C2)Cl)N)C3=NC=NC4=C3C=CN4 [AZD5363] (first compound max 10 µM, 7x7, partner max 10 µM)
- combination Emax [2]: 0.557
- combination Emax [3]: 0.621
- combination Emax [4]: 0.427

SMILES: C[C@@H]1COCCN1c1cc(C2([S@](C)(=N)=O)CC2)nc(-c2ccnc3[nH]ccc23)n1 [AZD6738] + Nc1ccn([C@@H]2O[C@H](CO)[C@@H](O)C2(F)F)c(=O)n1 [Gemcitabine] (first compound max 10 µM, 7x7, partner max 0.3 µM)
- combination Emax [2]: 0.71
- combination Emax [3]: 0.967
- combination Emax [4]: 0.907

SMILES: Cc1c2c(nn1C)CSCc1cc(n(C)n1)CSc1cc(c3ccccc3c1)OCCCc1c(C(=O)O)n(C)c3c-2c(Cl)ccc13 [AZD5991] + Nc1ccn([C@@H]2O[C@H](CO)[C@@H](O)C2(F)F)c(=O)n1 [Gemcitabine] (first compound max 1 µM, 7x7, partner max 0.3 µM)
- combination Emax [2]: 0.582
- combination Emax [3]: 0.857
- combination Emax [4]: 0.811

SMILES: Cc1nc(-c2cn3c(n2)-c2ccc(-c4cnn(C(C)(C)C(N)=O)c4)cc2OCC3)n(C(C)C)n1 [Taselisib] + O=C(Nc1ccc2[nH]nc(-c3ccncc3)c2c1)[C@@H]1CCN(CC(=O)N2CCN(c3ccc(-c4ncccn4)cc3)CC2)C1 [SCH772984] (first compound max 10 µM, 7x7, partner max 5 µM)
- combination Emax [2]: 0.735
- combination Emax [3]: 0.884
- combination Emax [4]: 0.636

SMILES: CS(=O)(=O)CCNCc1ccc(-c2ccc3ncnc(Nc4ccc(OCc5cccc(F)c5)c(Cl)c4)c3c2)o1 [Lapatinib] + Cn1cnc2c(F)c(Nc3ccc(Br)cc3Cl)c(C(=O)NOCCO)cc21 [Selumetinib] (first compound max 10 µM, 7x7, partner max 10 µM)
- combination Emax [2]: 0.341
- combination Emax [3]: 0.469
- combination Emax [4]: 0.25

SMILES: C=CCn1c(=O)c2cnc(Nc3ccc(N4CCN(C)CC4)cc3)nc2n1-c1cccc(C(C)(C)O)n1 [AZD1775] + Nc1ccn([C@@H]2O[C@H](CO)[C@@H](O)C2(F)F)c(=O)n1 [Gemcitabine] (first compound max 1 µM, partner max 0.3 µM)
- combination Emax [2]: 0.633
- combination Emax [3]: 0.938
- combination Emax [4]: 0.825

SMILES: C[C@@H]1COCCN1c1cc(C2([S@](C)(=N)=O)CC2)nc(-c2ccnc3[nH]ccc23)n1 [AZD6738] + C1CC(C1)(C(=O)[O-])C(=O)[O-].N.N.[Pt+2] [Carboplatin] (first compound max 10 µM, 7x7, partner max 10 µM)
- combination Emax [2]: 0.427
- combination Emax [3]: 0.723
- combination Emax [4]: 0.456

SMILES: C[C@@H](Nc1cc(F)cc(F)c1)c1cc(C(=O)N(C)C)cc2c(=O)cc(N3CCOCC3)oc12 [AZD8186] + CC(=O)c1c(C)c2cnc(Nc3ccc(N4CCNCC4)cn3)nc2n(C2CCCC2)c1=O [Palbociclib] (first compound max 10 µM, 7x7, partner max 10 µM)
- combination Emax [2]: 0.665
- combination Emax [3]: 0.718
- combination Emax [4]: 0.359

SMILES: C[C@@H](Oc1cc(-c2cnn(C3CCNCC3)c2)cnc1N)c1c(Cl)ccc(F)c1Cl [Crizotinib] + CC1=C(C(=CC=C1)Cl)NC(=O)C2=CN=C(S2)NC3=CC(=NC(=N3)C)N4CCN(CC4)CCO [Dasatinib] (first compound max 10 µM, 7x7, partner max 2 µM)
- combination Emax [2]: 0.866
- combination Emax [3]: 0.928
- combination Emax [4]: 0.615

SMILES: CC1(C)CCC(CN2CCN(c3ccc(C(=O)NS(=O)(=O)c4ccc(NCC5CCOCC5)c([N+](=O)[O-])c4)c(Oc4cnc5[nH]ccc5c4)c3)CC2)=C(c2ccc(Cl)cc2)C1 [Venetoclax] + CS(=O)(=O)CCNCc1ccc(-c2ccc3ncnc(Nc4ccc(OCc5cccc(F)c5)c(Cl)c4)c3c2)o1 [Lapatinib] (first compound max 1 µM, 7x7, partner max 10 µM)
- combination Emax [2]: 0.196
- combination Emax [3]: 0.213
- combination Emax [4]: 0.0911

SMILES: CN(CCO)CC[C@H](CSc1ccccc1)Nc1ccc(S(=O)(=O)NC(=O)c2ccc(N3CCC([C@@H](O)c4ccccc4-c4ccc(Cl)cc4)CC3)cc2)cc1S(=O)(=O)C(F)(F)F [AZD4320] + CS(=O)(=O)CCNCc1ccc(-c2ccc3ncnc(Nc4ccc(OCc5cccc(F)c5)c(Cl)c4)c3c2)o1 [Lapatinib] (first compound max 1 µM, 7x7, partner max 10 µM)
- combination Emax [2]: 0.759
- combination Emax [3]: 0.298
- combination Emax [4]: 0.198
